Experiment [1] has as its system NCI/ADR-RES. The experiment is described as follows: Growth inhibition of human NCI/ADR-RES cells. The experiment is classed as functional.
Experiment [2] in a line: Growth inhibition of human NCI60 cells. The experiment is classed as functional.

`C=C1C[C@@H](O)[C@@H](Br)C(C)(C)[C@@]12C=C[C@@](O)(C(Br)Br)CC2` [MAILIOHYDRIN]: the GI50 in experiment [1] turned out to be 10 nM; in experiment [2], 10 µM.

Source of the values: ChEMBL document CHEMBL1150865, “Ma'iliohydrin, a cytotoxic chamigrene dibromohydrin from a Philippine Laurencia species” (2001).
